Legend:
sugar beet = experiment: Test B pre/postemergence sugar beet; format: in vivo, Beta vulgaris
Summary of the method: (§1)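 Response is a visual 0-to-10 score relative to untreated plants, where 0 means no effect and 10 means complete control, taken twelve to sixteen days after application. Treatments went onto soil at planting and onto foliage of 1- to 4-leaf plants, using a surfactant-containing non-phytotoxic solvent.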

surinam grass = experiment: Test B pre/postemergence surinam grass; format: in vivo, Brachiaria decumbens
Summary of the method: as §1

purple nutsedge = experiment: Test B pre/postemergence purple nutsedge; format: in vivo, Cyperus rotundus
Summary of the method: as §1

smallflower flatsedge = experiment: Test B flood test smallflower flatsedge; format: in vivo, Cyperus difformis
Summary of the method: (§2)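 Flood test on plants grown to the 2-leaf stage; treated plants kept in greenhouse twelve to sixteen days, then visually rated against controls on a 0 (no effect) to 10 (complete control) scale.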

wheat = experiment: Test B pre/postemergence wheat; format: in vivo, Triticum aestivum
Summary of the method: as §1

rice = experiment: Test B flood test rice; format: in vivo, Oryza sativa
Summary of the method: as §2

velvetleaf = experiment: Test B pre/postemergence velvetleaf; format: in vivo, Abutilon theophrasti
Summary of the method: as §1

cocklebur = experiment: Test B pre/postemergence cocklebur; format: in vivo, Xanthium strumarium
Summary of the method: as §1

corn = experiment: Test B pre/postemergence corn; format: in vivo, Zea mays
Summary of the method: as §1

soybean = experiment: Test B pre/postemergence soybean; format: in vivo, Glycine max
Summary of the method: as §1

giant foxtail = experiment: Test B pre/postemergence giant foxtail; format: in vivo, Setaria faberii
Summary of the method: as §1

bedstraw = experiment: Test B pre/postemergence bedstraw; format: in vivo, Galium aparine
Summary of the method: as §1

wild oat = experiment: Test B pre/postemergence wild oat; format: in vivo, Avena fatua
Summary of the method: as §1

pigweed = experiment: Test B pre/postemergence pigweed; format: in vivo, Amaranthus retroflexus
Summary of the method: as §1

duck salad = experiment: Test B flood test duck salad; format: in vivo, Heteranthera limosa
Summary of the method: as §2

rape = experiment: Test B pre/postemergence rape; format: in vivo, Brassica napus
Summary of the method: as §1

[1] = Postemergence, Rate 125 g/ha, scale of 0 to 10 where 0 is no effect and 10 is complete control
[2] = Preemergence, Rate 62 g/ha, scale 0 to 10 (0 no effect, 10 complete control)
[3] = Preemergence, Rate 125 g/ha, 0 is no effect, 10 is complete control
[4] = Preemergence, Rate 250 g/ha, scale 0 to 10, 0 is no effect, 10 is complete control
[5] = Preemergence, Rate 500 g/ha, scale 0 to 10 (0 no effect, 10 complete control)
[6] = Rate 62 g/ha, Postemergence, scale of 0 to 10 where 0 is no effect and 10 is complete control
[7] = Rate 250 g/ha, Postemergence, scale 0 to 10, 0 is no effect, 10 is complete control
[8] = Rate 500 g/ha, Postemergence, scale 0 to 10
[9] = Postemergence (flood test species), Rate 125 g/ha, scale of 0 to 10 where 0 is no effect and 10 is complete control
[10] = Rate 62 g/ha, Postemergence section, flood test species, scale of 0 to 10 where 0 is no effect and 10 is complete control
[11] = Rate 250 g/ha, Postemergence (flood test), scale 0 to 10, 0 is no effect, 10 is complete control
[12] = Rate 250 g/ha, headed Pre-emergence (flood test species), scale 0 to 10 (0 no effect, 10 complete control)
[13] = Rate 500 g/ha, headed Pre-emergence (flood test species), scale 0 to 10 (0 no effect, 10 complete control)
[14] = Rate 500 g/ha, listed under Postemergence (flood test species), scale 0 to 10
[15] = Rate 2000 g/ha, Pre-emergence (as headed), scale 0 to 10
[16] = Rate 1000 g/ha, Pre-emergence (as headed), scale 0 to 10

**Q.** What does the source list for Cc1cnn(C)c1-n1c(=O)on(C(=O)N(c2ccc(F)cc2)C(C)C)c1=O [Compound 125]?
**A.** Sugarbeets plant response rating (sugar beet; [1]): 0; Sugarbeets plant response rating (sugar beet; [2]): 0; Sugarbeets plant response rating (0 to 10 scale) (sugar beet; [3]): 0; Sugarbeets plant response rating (sugar beet; [4]): 0; Sugarbeets plant response rating (sugar beet; [5]): 0; Sugarbeets plant response rating (sugar beet; [6]): 0; Plant response rating, Sugarbeets (sugar beet; [7]): 0; Sugarbeets plant response rating (sugar beet; [8]): 0; B. signalgrass plant response rating (surinam grass; Postemergence, Rate 62 g/ha, scale 0 to 10, 0 is no effect, 10 is complete control): 0; B. signalgrass plant response rating (surinam grass; [1]): 0; B. signalgrass plant response rating (surinam grass; [2]): 0; B. signalgrass plant response rating (0 to 10 scale) (surinam grass; [3]): 0; B. signalgrass plant response rating (surinam grass; [4]): 0; B. signalgrass plant response rating (surinam grass; [5]): 0; Plant response rating, B. signalgrass (surinam grass; [7]): 0; B. signalgrass plant response rating (surinam grass; Rate 500 g/ha, Postemergence, scale of 0 to 10 where 0 is no effect and 10 is complete control): 0; Nutsedge plant response rating (purple nutsedge; [1]): 0; Nutsedge plant response rating (purple nutsedge; [2]): 0; Nutsedge plant response rating (0 to 10 scale) (purple nutsedge; [3]): 0; Nutsedge plant response rating (purple nutsedge; [4]): 0; Nutsedge plant response rating (purple nutsedge; [5]): 0; Nutsedge plant response rating (purple nutsedge; [6]): 0; Plant response rating, Nutsedge (purple nutsedge; [7]): 0; Nutsedge plant response rating (purple nutsedge; [8]): 0; S. Flatsedge plant response rating (smallflower flatsedge; [9]): 0; S. Flatsedge plant response rating (smallflower flatsedge; Pre-emergence, Rate 1000 g/ha, scale 0 to 10 (0 no effect, 10 complete control)): 0; S. Flatsedge plant response rating (smallflower flatsedge; [10]): 0; Plant response rating, S. Flatsedge (smallflower flatsedge; [11]): 0; S. Flatsedge plant response rating (smallflower flatsedge; [12]): 0; Plant response rating, S. Flatsedge (smallflower flatsedge; [13]): 0; S. Flatsedge plant response rating (smallflower flatsedge; [14]): 0; S. Flatsedge plant response rating (smallflower flatsedge; [15]): 0; Wheat plant response rating (wheat; [1]): 0; Wheat plant response rating (wheat; [2]): 0; Wheat plant response rating (0 to 10 scale) (wheat; [3]): 0; Wheat plant response rating (wheat; [4]): 0; Wheat plant response rating (wheat; [5]): 0; Wheat plant response rating (wheat; [6]): 0; Plant response rating, Wheat (wheat; [7]): 0; Wheat plant response rating (wheat; [8]): 0; Rice plant response rating (rice; [9]): 0; Rice plant response rating (rice; [10]): 0; Plant response rating, Rice (rice; [11]): 0; Rice plant response rating (rice; [12]): 0; Plant response rating, Rice (rice; [13]): 0; Rice plant response rating (rice; [14]): 0; Rice plant response rating (rice; [16]): 0; Rice plant response rating (rice; [15]): 0; Velvetleaf plant response rating (velvetleaf; [1]): 0; Velvetleaf plant response rating (velvetleaf; [2]): 0; Velvetleaf plant response rating (0 to 10 scale) (velvetleaf; [3]): 0; Velvetleaf plant response rating (velvetleaf; [4]): 0; Velvetleaf plant response rating (velvetleaf; [5]): 0; Velvetleaf plant response rating (velvetleaf; [6]): 0; Plant response rating, Velvetleaf (velvetleaf; [7]): 0; Velvetleaf plant response rating (velvetleaf; [8]): 0; Cocklebur plant response rating (cocklebur; [1]): 0; Cocklebur plant response rating (cocklebur; [2]): 0; Cocklebur plant response rating (0 to 10 scale) (cocklebur; [3]): 0; Cocklebur plant response rating (cocklebur; [4]): 0; Cocklebur plant response rating (cocklebur; [5]): 0; Cocklebur plant response rating (cocklebur; [6]): 0; Plant response rating, Cocklebur (cocklebur; [7]): 0; Cocklebur plant response rating (cocklebur; [8]): 0; Corn plant response rating (corn; [1]): 0; Corn plant response rating (corn; [2]): 0; Corn plant response rating (0 to 10 scale) (corn; [3]): 0; Corn plant response rating (corn; [4]): 0; Corn plant response rating (corn; [5]): 0; Corn plant response rating (corn; [6]): 0; Plant response rating, Corn (corn; [7]): 0; Corn plant response rating (corn; [8]): 0; Soybean plant response rating (soybean; [1]): 4; Soybean plant response rating (soybean; [2]): 0; Soybean plant response rating (0 to 10 scale) (soybean; [3]): 0; Soybean plant response rating (soybean; [4]): 0; Soybean plant response rating (soybean; [5]): 0; Soybean plant response rating (soybean; [6]): 0; Plant response rating, Soybean (soybean; [7]): 4; Soybean plant response rating (soybean; [8]): 4; Giant foxtail plant response rating (giant foxtail; [1]): 0; Giant foxtail plant response rating (giant foxtail; [2]): 0; Giant foxtail plant response rating (0 to 10 scale) (giant foxtail; [3]): 0; Giant foxtail plant response rating (giant foxtail; [5]): 0; Giant foxtail plant response rating (giant foxtail; [6]): 0; Plant response rating, Giant foxtail (giant foxtail; [7]): 0; Giant foxtail plant response rating (giant foxtail; [8]): 0; Bedstraw plant response rating (bedstraw; [2]): 0; Bedstraw plant response rating (0 to 10 scale) (bedstraw; [3]): 0; Bedstraw plant response rating (bedstraw; [4]): 0; Bedstraw plant response rating (bedstraw; [5]): 0; Bedstraw plant response rating (bedstraw; Rate 500 g/ha, Postemergence, scale 0 to 10, 0 no effect, 10 complete control): 0; Wild oats plant response rating (wild oat; [1]): 0; Wild oats plant response rating (wild oat; [2]): 0; Wild oats plant response rating (0 to 10 scale) (wild oat; [3]): 0; Wild oats plant response rating (wild oat; [4]): 0; Wild oats plant response rating (wild oat; [5]): 0; Wild oats plant response rating (wild oat; [6]): 0; Plant response rating, Wild oats (wild oat; [7]): 0; Wild oats plant response rating (wild oat; [8]): 0; Redroot pigweed plant response rating (pigweed; [1]): 0; Redroot pigweed plant response rating (pigweed; [2]): 0; Redroot pigweed plant response rating (0 to 10 scale) (pigweed; [3]): 0; Redroot pigweed plant response rating (pigweed; [4]): 0; Redroot pigweed plant response rating (pigweed; [5]): 0; Redroot pigweed plant response rating (pigweed; [6]): 0; Plant response rating, Redroot pigweed (pigweed; [7]): 0; Redroot pigweed plant response rating (pigweed; [8]): 0; Ducksalad plant response rating (duck salad; [9]): 0; Ducksalad plant response rating (duck salad; [10]): 0; Plant response rating, Ducksalad (duck salad; [11]): 0; Ducksalad plant response rating (duck salad; [12]): 0; Plant response rating, Ducksalad (duck salad; [13]): 0; Ducksalad plant response rating (duck salad; [14]): 0; Ducksalad plant response rating (duck salad; [16]): 0; Ducksalad plant response rating (duck salad; [15]): 0; Rape plant response rating (rape; [1]): 0; Rape plant response rating (rape; [2]): 0; Rape plant response rating (0 to 10 scale) (rape; [3]): 0; Rape plant response rating (rape; [4]): 0; Rape plant response rating (rape; [5]): 0; Rape plant response rating (rape; [6]): 0; Plant response rating, Rape (rape; [7]): 0; Rape plant response rating (rape; [8]): 0

Source: US6737383B1, “Herbicidal oxadiazolidines” (priority 1999, dated 2004)
